# According to publication PMC3885398, “Evaluation of the Antitumor Effects of BPR1J-340, a Potent and Selective FLT3 Inhibitor, Alone or in Combination with an HDAC Inhibitor, Vorinostat, in AML Cancer” (PLoS ONE, 2014):
# Tests used:
# Assay type in all cases: biochemical
# Aurora B kinase = Aurora B kinase (Homo sapiens, UniProt Q96GD4); experiment: Aurora B kinase inhibition
# Method: (§1) BPR1J-340, a urea-substituted 3-phenyl-1H-5-pyrazolylamine-based compound, was designed through chemical modification of sulfonamide series of derivatives (BPR1J-097 series) by a structure-activity relationship (SAR) study (Fig. 1), [32]. For kinase inhibition specificity screening, BPR1J-340 was tested against 59 protein kinases covering the major oncogenic kinases of human protein kinome. […] In addition, BPR1J-340 inhibited TRKA, which is associated with the growth and metastasis of breast cancers, with an IC50 value of 8 nM. Given the high similarity of the ATP binding pockets of FLT3 and the Aurora kinases, the inhibitory activity toward Aurora A and Aurora B were measured. […] Taken together, BPRJ-340 is a selective kinase inhibitor with in vitro activity against FLT3, VEGFR2, VEGFR3 and TRKA receptor tyrosine kinases.
# Aurora A kinase = Aurora A kinase (Homo sapiens, UniProt O14965); experiment: Aurora A kinase inhibition
# Method: as §1
# KDR (VEGFR2) = KDR (VEGFR2) (Homo sapiens, UniProt P35968); experiment: VEGFR2 Kinase-Glo kinase assay; design: VEGFR2 (residues V789-V1356); made in house
# Method: (§2) The FLT3 inhibitors, BPR1J-340 and AC220, were synthesized by our laboratory. The histone deacetylase inhibitor vorinostat (SAHA) was purchased from SelleckBio (Houston, TX, USA). All inhibitors were dissolved in dimethylsulfoxide (DMSO) at a stock concentration of 10 mM. The anti-FLT3 (sc-480, Santa Cruz Biotechnology, Santa Cruz, CA, USA), anti-pFLT3-Tyr591 (#3461, Cell Signaling Technology, Beverly, MA, USA) anti-STAT5 (#9363, Cell Signaling Technology), anti-pSTAT5–Tyr694 (#9351, Cell Signaling Technology), anti-cleaved poly ADP-ribose polymerase (PARP) (#9542, Cell Signaling Technology), anti-Mcl-1 (#4572, Cell Signaling Technology), anti-caspase 3 (#9662, Cell Signaling Technology) and anti-β-actin (Gtx110546, GeneTex, Irvine, CA, USA) antibodies were purchased for Western blotting analysis. The preparation of recombinant proteins, FLT3 (residues Y567-S993), VEGFR1 (residues R781-I1338) and VEGFR2 (residues V789-V1356), for biochemical kinase assay was described previously. The VEGFR3 (residues M800-Y1363) proteins were purchased from Upstate (Billerica, MA, USA).
# (§3) The FLT3 and VEGFR1/2 Kinase-Glo kinase assays were performed as reported by our earlier study. […] The kinase inhibition profiling and inhibitory activity of FLT3-D835Y, CSF1R, and TRKA were determined by Invitrogen SelectScreen® kinase profiling service (Carlsbad, California, USA).
# NTRK1 (TRKA) = NTRK1 (TRKA) (Homo sapiens, UniProt P04629); experiment: Invitrogen SelectScreen kinase profiling / IC50
# Method: (§4) The FLT3 and VEGFR1/2 Kinase-Glo kinase assays were performed as reported by our earlier study. The VEGFR3 activity analysis was conducted using the same protocol described in the VEGFR1/2 assay. The kinase inhibition profiling and inhibitory activity of FLT3-D835Y, CSF1R, and TRKA were determined by Invitrogen SelectScreen® kinase profiling service (Carlsbad, California, USA).
# as §1
# CSF1R (FMS) = CSF1R (FMS) (Homo sapiens, UniProt P07333); experiment: Invitrogen SelectScreen kinase profiling / IC50
# Method: as §4, §1
# FLT3 D835Y = molecular target: T1, FLT3 D835Y (Homo sapiens, UniProt P36888, D835Y); experiment: Invitrogen SelectScreen kinase profiling / IC50
# T1 sequence (P36888 27-993 D835Y): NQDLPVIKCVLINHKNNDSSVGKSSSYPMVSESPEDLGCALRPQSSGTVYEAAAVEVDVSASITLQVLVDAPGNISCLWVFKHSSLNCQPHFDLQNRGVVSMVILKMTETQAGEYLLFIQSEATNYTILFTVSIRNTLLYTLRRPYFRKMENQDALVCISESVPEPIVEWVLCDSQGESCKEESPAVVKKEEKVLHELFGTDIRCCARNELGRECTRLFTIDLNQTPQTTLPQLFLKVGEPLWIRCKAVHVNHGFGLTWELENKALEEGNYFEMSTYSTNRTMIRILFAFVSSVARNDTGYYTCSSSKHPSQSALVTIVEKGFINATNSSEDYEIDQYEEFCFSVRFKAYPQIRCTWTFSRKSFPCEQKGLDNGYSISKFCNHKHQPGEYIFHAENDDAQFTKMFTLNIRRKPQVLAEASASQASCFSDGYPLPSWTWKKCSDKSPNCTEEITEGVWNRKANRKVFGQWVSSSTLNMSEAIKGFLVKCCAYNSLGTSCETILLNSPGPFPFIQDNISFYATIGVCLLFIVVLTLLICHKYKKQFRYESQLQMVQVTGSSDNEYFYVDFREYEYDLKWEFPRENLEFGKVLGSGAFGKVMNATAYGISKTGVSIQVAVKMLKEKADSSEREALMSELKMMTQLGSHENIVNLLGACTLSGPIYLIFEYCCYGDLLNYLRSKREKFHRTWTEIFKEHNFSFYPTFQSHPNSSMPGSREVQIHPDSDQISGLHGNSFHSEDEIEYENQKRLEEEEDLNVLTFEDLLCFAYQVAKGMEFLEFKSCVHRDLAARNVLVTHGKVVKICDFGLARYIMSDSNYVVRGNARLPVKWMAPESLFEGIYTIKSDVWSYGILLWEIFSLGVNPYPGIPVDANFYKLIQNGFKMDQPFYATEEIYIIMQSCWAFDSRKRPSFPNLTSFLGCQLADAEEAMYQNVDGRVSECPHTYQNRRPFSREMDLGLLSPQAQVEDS
# Method: as §4, §1
# FLT1 (VEGFR1) = molecular target: T2, FLT1 (VEGFR1) (Homo sapiens, UniProt P17948); experiment: VEGFR1 Kinase-Glo kinase assay
# T2 construct: VEGFR1 (residues R781-I1338); made in house
# Method: as §2, §3
# Chain of CSF1R (FMS) (P07333 20-972): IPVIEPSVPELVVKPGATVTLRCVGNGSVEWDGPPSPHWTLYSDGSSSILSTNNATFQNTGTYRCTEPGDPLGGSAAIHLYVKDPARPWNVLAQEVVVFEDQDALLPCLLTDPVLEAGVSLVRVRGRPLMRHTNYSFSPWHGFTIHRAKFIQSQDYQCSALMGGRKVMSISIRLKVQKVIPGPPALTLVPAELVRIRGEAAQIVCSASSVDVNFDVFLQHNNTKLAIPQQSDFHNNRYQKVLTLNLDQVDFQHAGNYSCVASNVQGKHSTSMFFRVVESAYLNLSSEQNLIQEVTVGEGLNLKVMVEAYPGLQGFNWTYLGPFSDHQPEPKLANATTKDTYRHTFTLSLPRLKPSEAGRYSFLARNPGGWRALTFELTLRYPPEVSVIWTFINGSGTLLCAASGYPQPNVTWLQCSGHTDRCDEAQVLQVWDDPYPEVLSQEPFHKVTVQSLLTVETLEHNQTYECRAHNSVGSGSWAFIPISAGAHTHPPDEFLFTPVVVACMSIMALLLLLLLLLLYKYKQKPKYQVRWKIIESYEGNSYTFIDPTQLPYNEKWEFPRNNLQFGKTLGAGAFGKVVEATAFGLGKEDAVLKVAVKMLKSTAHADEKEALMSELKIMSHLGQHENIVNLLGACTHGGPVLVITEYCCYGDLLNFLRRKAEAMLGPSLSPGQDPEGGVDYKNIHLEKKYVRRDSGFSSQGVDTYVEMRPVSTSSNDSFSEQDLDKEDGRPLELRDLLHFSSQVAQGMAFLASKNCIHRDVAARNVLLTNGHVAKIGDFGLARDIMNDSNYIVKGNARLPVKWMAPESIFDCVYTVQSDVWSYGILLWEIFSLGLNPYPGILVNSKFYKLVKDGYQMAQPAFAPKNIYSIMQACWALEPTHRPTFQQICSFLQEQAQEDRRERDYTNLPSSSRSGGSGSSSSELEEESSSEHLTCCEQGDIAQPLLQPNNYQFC
# Chain of NTRK1 (TRKA) (P04629 33-796): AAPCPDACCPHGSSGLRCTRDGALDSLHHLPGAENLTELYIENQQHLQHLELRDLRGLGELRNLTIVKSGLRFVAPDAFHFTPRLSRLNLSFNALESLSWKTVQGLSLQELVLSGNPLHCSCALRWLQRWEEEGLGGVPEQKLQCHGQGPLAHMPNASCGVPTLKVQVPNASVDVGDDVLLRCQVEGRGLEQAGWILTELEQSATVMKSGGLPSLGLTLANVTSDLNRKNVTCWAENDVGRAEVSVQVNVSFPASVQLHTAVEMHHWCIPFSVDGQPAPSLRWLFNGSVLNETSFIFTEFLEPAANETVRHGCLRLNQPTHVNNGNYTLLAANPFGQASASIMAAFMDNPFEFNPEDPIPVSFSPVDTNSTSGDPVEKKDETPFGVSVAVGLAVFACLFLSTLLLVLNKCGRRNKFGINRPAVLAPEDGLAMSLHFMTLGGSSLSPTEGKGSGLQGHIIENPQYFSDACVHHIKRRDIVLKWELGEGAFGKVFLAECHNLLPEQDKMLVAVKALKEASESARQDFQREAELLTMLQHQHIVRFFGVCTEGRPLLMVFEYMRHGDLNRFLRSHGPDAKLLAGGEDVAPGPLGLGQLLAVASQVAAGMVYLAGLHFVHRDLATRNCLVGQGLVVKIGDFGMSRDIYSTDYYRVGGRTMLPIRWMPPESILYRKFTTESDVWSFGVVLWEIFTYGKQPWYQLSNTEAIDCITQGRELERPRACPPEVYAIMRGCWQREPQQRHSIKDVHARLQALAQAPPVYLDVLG
# Chain of Aurora A kinase (O14965 whole entry): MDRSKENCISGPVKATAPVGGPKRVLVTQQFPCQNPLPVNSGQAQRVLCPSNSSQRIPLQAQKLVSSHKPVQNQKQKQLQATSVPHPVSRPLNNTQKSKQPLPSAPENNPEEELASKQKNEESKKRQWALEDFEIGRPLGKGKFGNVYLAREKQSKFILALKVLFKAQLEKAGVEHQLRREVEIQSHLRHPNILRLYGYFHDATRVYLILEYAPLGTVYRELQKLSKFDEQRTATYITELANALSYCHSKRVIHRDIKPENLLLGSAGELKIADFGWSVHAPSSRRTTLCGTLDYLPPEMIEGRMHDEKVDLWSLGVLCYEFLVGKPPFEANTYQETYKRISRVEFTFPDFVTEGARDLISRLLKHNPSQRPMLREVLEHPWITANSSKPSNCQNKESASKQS
# Chain of KDR (VEGFR2) (P35968 789-1356): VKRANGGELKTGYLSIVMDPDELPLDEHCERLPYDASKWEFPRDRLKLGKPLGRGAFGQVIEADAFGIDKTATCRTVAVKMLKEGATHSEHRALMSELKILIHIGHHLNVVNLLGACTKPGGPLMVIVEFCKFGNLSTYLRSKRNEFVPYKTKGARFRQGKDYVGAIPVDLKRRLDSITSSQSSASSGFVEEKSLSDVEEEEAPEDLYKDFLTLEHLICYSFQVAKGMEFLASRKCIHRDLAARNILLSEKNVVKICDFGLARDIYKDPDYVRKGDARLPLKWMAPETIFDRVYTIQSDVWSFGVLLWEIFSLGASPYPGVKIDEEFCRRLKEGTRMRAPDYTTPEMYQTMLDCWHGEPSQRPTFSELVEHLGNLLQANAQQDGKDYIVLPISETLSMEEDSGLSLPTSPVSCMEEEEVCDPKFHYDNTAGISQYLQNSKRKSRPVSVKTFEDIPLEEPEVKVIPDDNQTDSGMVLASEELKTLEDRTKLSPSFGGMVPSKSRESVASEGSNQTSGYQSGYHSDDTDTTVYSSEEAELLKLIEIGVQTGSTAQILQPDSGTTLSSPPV
# T2 sequence (P17948 781-1338): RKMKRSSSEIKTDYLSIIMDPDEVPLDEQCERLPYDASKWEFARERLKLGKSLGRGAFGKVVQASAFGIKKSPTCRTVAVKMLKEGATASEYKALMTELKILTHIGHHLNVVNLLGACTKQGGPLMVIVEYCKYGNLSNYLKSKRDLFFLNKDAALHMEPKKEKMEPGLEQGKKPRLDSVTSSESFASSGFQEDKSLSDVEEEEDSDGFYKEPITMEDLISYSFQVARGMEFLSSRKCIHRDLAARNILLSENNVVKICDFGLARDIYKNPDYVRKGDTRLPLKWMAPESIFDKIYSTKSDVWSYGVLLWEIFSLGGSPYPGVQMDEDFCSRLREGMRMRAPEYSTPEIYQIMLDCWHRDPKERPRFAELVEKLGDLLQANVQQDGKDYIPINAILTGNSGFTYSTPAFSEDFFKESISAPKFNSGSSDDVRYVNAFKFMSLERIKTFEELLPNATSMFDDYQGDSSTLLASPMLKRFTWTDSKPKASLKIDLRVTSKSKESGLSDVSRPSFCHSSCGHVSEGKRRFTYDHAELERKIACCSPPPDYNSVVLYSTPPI
# Chain of Aurora B kinase (Q96GD4 whole entry): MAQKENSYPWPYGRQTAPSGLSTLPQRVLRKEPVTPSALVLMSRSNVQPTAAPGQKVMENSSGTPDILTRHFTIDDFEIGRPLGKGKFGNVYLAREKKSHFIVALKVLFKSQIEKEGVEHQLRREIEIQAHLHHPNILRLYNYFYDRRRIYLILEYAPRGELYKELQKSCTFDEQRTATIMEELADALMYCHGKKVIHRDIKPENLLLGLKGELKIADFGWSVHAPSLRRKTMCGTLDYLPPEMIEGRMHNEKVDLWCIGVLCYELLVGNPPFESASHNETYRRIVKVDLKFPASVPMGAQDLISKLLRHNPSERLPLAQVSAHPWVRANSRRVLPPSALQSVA
compound,measurement,setting,value
"CCc1cc(NC(=O)NCc2ccc(-c3cc(NC(=O)c4ccc(CN5CCN(C)CC5)cc4)[nH]n3)cc2)no1 [BPR1J-340, N1-(3-4-[([(5-ethyl-3-isoxazolyl)amino]carbonylamino)methyl]phenyl-1H-5-pyrazolyl)-4-[(4-methylpiperazino)methyl]benzamide]",IC50,Aurora B kinase,1.34 µM
same,IC50,Aurora A kinase,1.04 µM
same,IC50,KDR (VEGFR2),0.028 ± 0.009 µM
same,inhibition at 0.1 µM,"NTRK1 (TRKA); NTRK1 (TRKA), 100 nM",89%
same,IC50,"NTRK1 (TRKA); TRKA, Invitrogen SelectScreen kinase assay",0.008 µM
same,inhibition at 0.1 µM,CSF1R (FMS); 100 nM,73%
same,IC50,CSF1R (FMS); Invitrogen SelectScreen kinase assay,0.078 µM
same,IC50,"FLT3 D835Y; FLT3-D835Y, Invitrogen SelectScreen kinase assay",0.019 µM
same,inhibition at 0.1 µM,"FLT3 D835Y; FLT3 D835Y, 100 nM",78%
same,IC50,FLT1 (VEGFR1),0.164 ± 0.024 µM
